Measured values reported in patent US7087642B2 (priority 1999, dated 2006).
Like-named read-outs stand apart in the source and are kept apart here.

Experiments:
[1] = tested on: human PBMC T cells; assay: cells; format: cell-based; settings: Homo sapiens, 72 h, read-out: T-cells (IC50)
[2] = tested on: human PBMC B cells; assay: cells; format: cell-based; settings: read-out: B-cells (IC50)
[3] = target: IMPDH human type II (Homo sapiens, UniProt P12268); assay: biochemical

| SMILES | Ki ([3]; read-out: Ki) [nM] | other results |
| --- | --- | --- |
| COc1cc(NC(=O)Nc2cccc(CNC(=O)OC(CC#N)CN(C)C)c2)ccc1-c1cnco1 (stereo not shown) [Compound 17] | – | IC50 [1]: > 1000 nM; IC50 ([2]; Homo sapiens, 72 h): > 1000 nM |
| COc1cc(NC(=O)Nc2cccc(CNC(=O)O[C@H](CC#N)CN(C)C)c2)ccc1-c1cnco1 [Compound 17] | < 10 | – |
| COc1cc(NC(=O)Nc2cccc(CNC(=O)OC(CC#N)CN3CCCCC3)c2)ccc1-c1cnco1 (stereo not shown) [Compound 21] | – | IC50 [1]: 100 to 1000 nM; IC50 ([2]; Homo sapiens, 72 h): > 1000 nM |
| COc1cc(NC(=O)Nc2cccc(CNC(=O)O[C@@H](CC#N)CN3CCCCC3)c2)ccc1-c1cnco1 [Compound 21] | < 10 | – |
| COc1cc(NC(=O)Nc2cccc(CNC(=O)OC(CCl)CC#N)c2)ccc1-c1cnco1 (stereo not shown) [Compound 25] | – | IC50 [1]: 100 to 1000 nM; IC50 ([2]; Homo sapiens, 72 h): 100 to 1000 nM |
| COc1cc(NC(=O)Nc2cccc(CNC(=O)O[C@@H](CCl)CC#N)c2)ccc1-c1cnco1 [Compound 25] | < 10 | – |
| COc1cc(NC(=O)Nc2cccc(CNC(=O)OC(CCN(C)C(=O)OC(C)(C)C)c3ccccc3)c2)ccc1-c1cnco1 (stereo not shown) [Compound 31] | 10 to 50 | – |
| COc1cc(NC(=O)Nc2cccc(CNC(=O)O[C@H](CCC#N)COCc3ccccc3)c2)ccc1-c1cnco1 [Compound 53] | < 10 | – |
| CC[C@H](COCc1ccccc1)OC(=O)NCc1cccc(NC(=O)Nc2ccc(-c3cnco3)c(OC)c2)c1 [Compound 54] | < 10 | – |
| COc1cc(NC(=O)Nc2cccc(CNC(=O)O[C@H](CC#N)COCc3ccccc3)c2)ccc1-c1cnco1 [Compound 55] | < 10 | – |
| COc1cc(NC(=O)Nc2cccc(CNC(=O)OC(CCN3CCCC3)c3ccccc3)c2)ccc1-c1cnco1 (stereo not shown) [Compound 56] | < 10 | IC50 ([2]; Homo sapiens, 72 h): 100 to 1000 nM |
| COc1cc(NC(=O)Nc2cccc(CNC(=O)O[C@@H]3CC[C@H](OC(C)=O)C3)c2)ccc1-c1cnco1 [Compound 85] | > 50 | – |
| COc1cc(NC(=O)Nc2cccc(CNC(=O)OC3CCC[C@H]3N3CCOCC3)c2)ccc1-c1cnco1 (stereo partly shown) [Compound 86] | – | IC50 [1]: > 1000 nM; IC50 ([2]; Homo sapiens, 72 h): > 1000 nM |
| COc1cc(NC(=O)Nc2cccc(CNC(=O)O[C@@H]3CCC[C@H]3N3CCOCC3)c2)ccc1-c1cnco1 [Compound 86] | 10 to 50 | – |
| CC[C@H](COC(=O)CNC(=O)OC(C)(C)C)OC(=O)NCc1cccc(NC(=O)Nc2ccc(-c3cnco3)c(OC)c2)c1 [Compound 93] | 10 to 50 | – |
| CC[C@H](COC(C)=O)OC(=O)NCc1cccc(NC(=O)Nc2ccc(-c3cnco3)c(OC)c2)c1 [Compound 94] | < 10 | – |
| CC[C@H](COC(=O)CN)OC(=O)NCc1cccc(NC(=O)Nc2ccc(-c3cnco3)c(OC)c2)c1 [Compound 95] | 10 to 50 | – |
| CC[C@H](COP(=O)(O)O)OC(=O)NCc1cccc(NC(=O)Nc2ccc(-c3cnco3)c(OC)c2)c1 [Compound 96] | 10 to 50 | – |
| COc1cc(NC(=O)Nc2cccc(CNC(=O)OC(CN3CCSCC3)c3ccccc3)c2)ccc1-c1cnco1 (stereo not shown) [Compound 105] | – | IC50 [1]: 100 to 1000 nM; IC50 ([2]; Homo sapiens, 72 h): 100 to 1000 nM |
| COc1cc(NC(=O)Nc2cccc(CNC(=O)O[C@H](CN3CCSCC3)c3ccccc3)c2)ccc1-c1cnco1 [Compound 105] | < 10 | – |

| SMILES | Ki ([3]; read-out: Ki) [nM] | other results |
| --- | --- | --- |
| COc1cc(NC(=O)Nc2cccc(CNC(=O)OC(CN3CC[S+]([O-])CC3)c3ccccc3)c2)ccc1-c1cnco1 (stereo not shown) [Compound 106] | – | IC50 [1]: < 100 nM; IC50 ([2]; Homo sapiens, 72 h): < 100 nM |
| COc1cc(NC(=O)Nc2cccc(CNC(=O)O[C@H](CN3CC[S+]([O-])CC3)c3ccccc3)c2)ccc1-c1cnco1 [Compound 106] | > 50 | – |
| CCCN(CC)CC(OC(=O)NCc1cccc(NC(=O)Nc2ccc(-c3cnco3)c(OC)c2)c1)c1ccccc1 (stereo not shown) [Compound 111] | – | IC50 [1]: 100 to 1000 nM; IC50 ([2]; Homo sapiens, 72 h): 100 to 1000 nM |
| CCCN(CC)C[C@@H](OC(=O)NCc1cccc(NC(=O)Nc2ccc(-c3cnco3)c(OC)c2)c1)c1ccccc1 [Compound 111] | > 50 | – |
| COc1cc(NC(=O)Nc2cccc(CNC(=O)OC(CCN(C)CC(C)C)c3ccccc3)c2)ccc1-c1cnco1 (stereo not shown) [Compound 124] | > 50 | – |
| CCN(CC1CC1)CC(OC(=O)NCc1cccc(NC(=O)Nc2ccc(-c3cnco3)c(OC)c2)c1)c1ccccc1 (stereo not shown) [Compound 134] | – | IC50 [1]: 100 to 1000 nM; IC50 ([2]; Homo sapiens, 72 h): 100 to 1000 nM |
| CCN(CC1CC1)C[C@@H](OC(=O)NCc1cccc(NC(=O)Nc2ccc(-c3cnco3)c(OC)c2)c1)c1ccccc1 [Compound 134] | 10 to 50 | – |
| CCN(CC(OC(=O)NCc1cccc(NC(=O)Nc2ccc(-c3cnco3)c(OC)c2)c1)c1ccccc1)C1CC1 (stereo not shown) [Compound 135] | > 50 | – |
| CCCN(CC(OC(=O)NCc1cccc(NC(=O)Nc2ccc(-c3cnco3)c(OC)c2)c1)c1ccccc1)C1CC1 (stereo not shown) [Compound 136] | > 50 | – |
| COc1cc(NC(=O)Nc2cccc(CNC(=O)O[C@H](CN(CC3CC3)C3CC3)c3ccccc3)c2)ccc1-c1cnco1 [Compound 137] | > 50 | – |
| CCC(COS(N)(=O)=O)OC(=O)NCc1cccc(NC(=O)Nc2ccc(-c3cnco3)c(OC)c2)c1 (stereo not shown) [Compound 138] | – | IC50 [1]: 100 to 1000 nM; IC50 ([2]; Homo sapiens, 72 h): 100 to 1000 nM |
| CC[C@H](COS(N)(=O)=O)OC(=O)NCc1cccc(NC(=O)Nc2ccc(-c3cnco3)c(OC)c2)c1 [Compound 138] | < 10 | – |
| CCN(C)CCC(OC(=O)NCc1cccc(NC(=O)Nc2ccc(-c3cnco3)c(OC)c2)c1)c1ccccc1 (stereo not shown) [Compound 139] | – | Ki [3]: > 50 nM |
| CCN(CC)CCC(OC(=O)NCc1cccc(NC(=O)Nc2ccc(-c3cnco3)c(OC)c2)c1)c1ccccc1 (stereo not shown) [Compound 140] | – | Ki [3]: > 50 nM |
| COc1cc(NC(=O)Nc2cccc(CNC(=O)O[C@H](CO)CCO)c2)ccc1-c1cnco1 [Compound 141] | 10 to 50 | – |
| CCN(CC)CC(OC(=O)NCc1cccc(NC(=O)Nc2ccc(-c3cnco3)c(OC)c2)c1)c1nccs1 (stereo not shown) [Compound 142] | 10 to 50 | – |
| CCN(CC)CC(OC(=O)NCc1cccc(NC(=O)Nc2ccc(-c3cnco3)c(OC)c2)c1)C1CCCCC1 (stereo not shown) [Compound 157] | – | IC50 [1]: < 100 nM; IC50 ([2]; Homo sapiens, 72 h): < 100 nM |
| CCN(CC)C[C@@H](OC(=O)NCc1cccc(NC(=O)Nc2ccc(-c3cnco3)c(OC)c2)c1)C1CCCCC1 [Compound 157] | 10 to 50 | – |
| CCC(COC(N)=O)OC(=O)NCc1cccc(NC(=O)Nc2ccc(-c3cnco3)c(OC)c2)c1 (stereo not shown) [Compound 159] | – | IC50 [1]: 100 to 1000 nM; IC50 ([2]; Homo sapiens, 72 h): 100 to 1000 nM |
| CC[C@H](COC(N)=O)OC(=O)NCc1cccc(NC(=O)Nc2ccc(-c3cnco3)c(OC)c2)c1 [Compound 159] | < 10 | – |

| SMILES | Ki ([3]; read-out: Ki) [nM] | other results |
| --- | --- | --- |
| CCC(CNC(=O)OC(C)(C)C)OC(=O)NCc1cccc(NC(=O)Nc2ccc(-c3cnco3)c(OC)c2)c1 (stereo not shown) [Compound 160] | > 50 | – |
| CCC(CN)OC(=O)NCc1cccc(NC(=O)Nc2ccc(-c3cnco3)c(OC)c2)c1 (stereo not shown) [Compound 161] | < 10 | – |
| CCC(CO)OC(=O)N[C@@H](C)c1cccc(NC(=O)Nc2ccc(-c3cnco3)c(OC)c2)c1 (stereo partly shown) [Compound 164] | – | IC50 [1]: 100 to 1000 nM; IC50 ([2]; Homo sapiens, 72 h): 100 to 1000 nM |
| CC[C@H](CO)OC(=O)N[C@@H](C)c1cccc(NC(=O)Nc2ccc(-c3cnco3)c(OC)c2)c1 [Compound 164] | 10 to 50 | – |
| CC[C@H](CO)OC(=O)N[C@H](C)c1cccc(NC(=O)Nc2ccc(-c3cnco3)c(OC)c2)c1 [Compound 165] | > 50 | – |
| CCN(CC)C[C@@H](OC(=O)NC(C)c1cccc(NC(=O)Nc2ccc(-c3cnco3)c(OC)c2)c1)c1ccccc1 (stereo partly shown) [Compound 167] | > 50 | – |
| CCC(CC#N)OC(=O)N[C@@H](C)c1cccc(NC(=O)Nc2ccc(C#N)c(OC)c2)c1 (stereo partly shown) [Compound 168] | – | IC50 [1]: 100 to 1000 nM; IC50 ([2]; Homo sapiens, 72 h): 100 to 1000 nM |
| CC[C@@H](CC#N)OC(=O)N[C@@H](C)c1cccc(NC(=O)Nc2ccc(C#N)c(OC)c2)c1 [Compound 168] | – | Ki [3]: 10 to 50 nM |
| CCC(CC#N)OC(=O)N[C@H](C)c1cccc(NC(=O)Nc2ccc(-c3cnco3)c(OC)c2)c1 (stereo partly shown) [Compound 171] | – | IC50 [1]: 100 to 1000 nM; IC50 ([2]; Homo sapiens, 72 h): < 100 nM |
| CC[C@H](CC#N)OC(=O)N[C@H](C)c1cccc(NC(=O)Nc2ccc(-c3cnco3)c(OC)c2)c1 [Compound 171] | > 50 | – |
| CCC(CC#N)OC(=O)N[C@H](C)c1cccc(NC(=O)Nc2ccc(C#N)c(OC)c2)c1 (stereo partly shown) [Compound 172] | – | IC50 [1]: > 1000 nM; IC50 [2]: > 1000 nM |
| CC[C@@H](CC#N)OC(=O)N[C@H](C)c1cccc(NC(=O)Nc2ccc(C#N)c(OC)c2)c1 [Compound 172] | – | Ki [3]: > 50 nM |
| CCC(CO)OC(=O)N[C@@H](C)c1cccc(NC(=O)Nc2ccc(C#N)c(OC)c2)c1 (stereo partly shown) [Compound 176] | – | IC50 [1]: > 1000 nM; IC50 ([2]; Homo sapiens, 72 h): > 1000 nM |
| CC[C@@H](CO)OC(=O)N[C@@H](C)c1cccc(NC(=O)Nc2ccc(C#N)c(OC)c2)c1 [Compound 176] | > 50 | – |
| CCC(NC(=O)O[C@@H](CC)CC#N)c1cccc(NC(=O)Nc2ccc(C#N)c(OC)c2)c1 (stereo partly shown) [Compound 177] | > 50 | – |
| CCC(NC(=O)O[C@H](CC)CC#N)c1cccc(NC(=O)Nc2ccc(C#N)c(OC)c2)c1 (stereo partly shown) [Compound 178] | > 50 | – |
| CC[C@H](CC#N)OC(=O)N[C@@H](C)c1cccc(NC(=O)Nc2ccc(C#N)c(Cl)c2)c1 [Compound 183] | – | Ki [3]: 10 to 50 nM |
| COc1cc(NC(=O)Nc2cccc([C@H](C)NC(=O)O[C@@H]3CCOC3)c2)ccc1C#N [Compound 184] | 10 to 50 | – |
| CCOc1cc(NC(=O)Nc2cccc([C@H](C)NC(=O)O[C@H]3CCOC3)c2)ccc1C#N [Compound 186] | > 50 | – |
